Results on four compounds are retold here after ChEMBL document CHEMBL4390711, “New phenylpropanoid allopyranosides from the rhizomes of Cimicifuga dahurica” (Bioorg Med Chem Lett, 2019).

SMILES strings stand for the structures.

The assay concerns RAW264.7. The assay is described as follows: Antiinflammatory activity against mouse RAW264.7 cells assessed as inhibition of LPS-induced PGE2 production preincubated for 1 hr followed by LPS-stimulation and measured after 18 hrs. The format is functional, cell-based.

In general, IC50 refers to the midpoint of a concentration-inhibition curve. In the case of `COc1cc(/C=C/C(=O)O[C@H](C(=O)O)[C@](O)(Cc2ccc(O)cc2)C(=O)O)ccc1O` [CIMICIFUGIC ACID E], the IC50 was 19.7 µM.
As for `C[C@]12CCC(=O)C=C1CC[C@@H]1[C@@H]2[C@@H](O)C[C@@]2(C)[C@H]1CC[C@]2(O)C(=O)CO` [HYDROCORTISONE], the figure is 5.5 µM; as for `COc1cc(/C=C/C(=O)NCCc2ccc(O)cc2)ccc1O` [N-TRANS-FERULOYL TYRAMINE], 6.33 µM; as for `COc1cc(/C=C/C(=O)NCCc2ccc(O)c(O)c2)ccc1O` [N-TRANS-FERULOYLDOPAMINE], 39.9 µM.
